Experimental findings from ChEMBL document CHEMBL1121697, “Carbocyclic analogues of 5-fluorouracil nucleosides” (1981) are described below.

Common to all, as to format: functional
Assay [1] deals with Mus musculus. Description: Number of deaths recorded in mice with P388 leukemia on days 1-5 after intraperitoneal administration of 50 mg/kg of compound in a q.d. 1-9 schedule; 0/6.
For assay [2], the system named is Mus musculus. Description: Life span ratio of mice treated to that of control mice at dose 50 mg/kg, ip. To be noted: route intraperitoneal.
The species named for assay [3] is Mus musculus. Description: Median life span of the treated mice to that of control mice; 11.1/10.9.
Assay [4] deals with Mus musculus. As to the kind of experiment: Average weight change in treated mice to that of control mice on the same day of administration of 50 mg/kg of compound in a q. d. 1-9 schedule.
The subject of assay [5] is Mus musculus. Description: Number of deaths recorded in mice with P388 leukemia on days 1-5 after intraperitoneal administration of 50 mg/kg of compound in a q.d. 1-9 schedule; 0/5.
For assay [6], the system named is Mus musculus. Description: Median life span of the treated P388 leukemia mice to that of control mice after intraperitoneal administration of 400 mg/kg of compound in a q.d. 1-5 schedule; 14.3/11.9.
Assay [7] relates to Mus musculus. Description: Average weight change in treated P388 leukemia mice to that of control mice on administration of 200 mg/kg of compound in a q. d. 1-5 schedule.
In assay [8] the test system is Mus musculus. Description: Life span ratio of L1210 leukemia mice treated to that of control mice at dose 100 mg/kg, ip. To be noted: route intraperitoneal.
Assay [9] relates to Mus musculus. As to the kind of experiment: Number of deaths recorded in mice with L-1210 leukemia on days 1-5 after intraperitoneal administration of 100 mg/kg of compound in a q.d. 1-9 schedule; 0/6.
The subject of assay [10] is Mus musculus. As to the kind of experiment: Average weight change in treated P388 leukemia mice to that of control mice on administration of 50 mg/kg of compound in a q. d. 1-9 schedule.
Assay [11] relates to Mus musculus. Description: Median life span of the treated P388 leukemia mice to that of control mice after intraperitoneal administration of 600 mg/kg of compound in a q.d. 1-5 schedule; 13.1/12.0.
Assay [12] deals with Mus musculus. As to the kind of experiment: Life span ratio of P388 leukemia mice treated to that of control mice at dose 600 mg/kg, ip. As to conditions: route intraperitoneal.
Assay [13] deals with Mus musculus. As to the kind of experiment: Life span ratio of P388 leukemia mice treated to that of control mice at dose 400 mg/kg, ip. As to conditions: route intraperitoneal.
Assay [14] concerns Mus musculus. As to the kind of experiment: Number of deaths recorded in mice with P388 leukemia on days 1-5 after intraperitoneal administration of 400 mg/kg of compound in a q.d. 1-5 schedule; 0/6.
In assay [15] the test system is Mus musculus. As to the kind of experiment: Median life span of the treated P388 leukemia mice to that of control mice after intraperitoneal administration of 100 mg/kg of compound in a q.d. 1-9 schedule; 11.4/11.3.
The subject of assay [16] is Mus musculus. As to the kind of experiment: Life span ratio of P388 leukemia mice treated to that of control mice at dose 200 mg/kg, ip. As to conditions: route intraperitoneal.
Assay [17] has as its system Mus musculus. As to the kind of experiment: Life span ratio of P388 leukemia mice treated to that of control mice at dose 100 mg/kg, ip. To be noted: route intraperitoneal.
Assay [18] has as its system Mus musculus. As to the kind of experiment: Median life span of the treated P388 leukemia mice to that of control mice after intraperitoneal administration of 200 mg/kg of compound in a q.d. 1-5 schedule 12.0/11.9.
For assay [19], the system named is Mus musculus. As to the kind of experiment: Number of deaths recorded in mice with P388 leukemia on days 1-5 after intraperitoneal administration of 200 mg/kg of compound in a q.d. 1-5 schedule; 0/6.
The subject of assay [20] is Mus musculus. Description: Number of deaths recorded in mice with P388 leukemia on days 1-5 after intraperitoneal administration of 600 mg/kg of compound in a q.d. 1-5 schedule; 0/6.
In assay [21] the test system is Mus musculus. As to the kind of experiment: Number of deaths recorded in mice with P388 leukemia on days 1-5 after intraperitoneal administration of 100 mg/kg of compound in a q.d. 1-9 schedule; 0/6.
Assay [22] deals with Mus musculus. Description: Life span ratio of P388 leukemia mice treated to that of control mice at dose 50 mg/kg, ip. To be noted: route intraperitoneal.
The test system of assay [23] is Mus musculus. Description: Average weight change in treated P388 leukemia mice to that of control mice on administration of 400 mg/kg of compound in a q. d. 1-5 schedule.
Assay [24] concerns Mus musculus. As to the kind of experiment: Median life span of the treated P388 leukemia mice to that of control mice after intraperitoneal administration of 50 mg/kg of compound in a q.d. 1-9 schedule; 10.5/10.9.
Assay [25] has as its system Mus musculus. As to the kind of experiment: Median life span of the treated L1210 leukemia mice to that of control mice after intraperitoneal administration of 100 mg/kg of compound in a q.d. 1-9 schedule; 8.3/8.2.
Assay [26] relates to Mus musculus. As to the kind of experiment: Average weight change in treated P388 leukemia mice to that of control mice on administration of 100 mg/kg of compound in a q. d. 1-9 schedule.
In assay [27] the test system is Mus musculus. As to the kind of experiment: Average weight change in treated L1210 leukemia mice to that of control mice on administration of 100 mg/kg of compound in a q. d. 1-9 schedule.
For assay [28], the system named is Mus musculus. As to the kind of experiment: Average weight change in treated P388 leukemia mice to that of control mice on administration of 600 mg/kg of compound in a q. d. 1-5 schedule.

For `O=c1[nH]c(=O)n(C2CC(CO)C(O)C2O)cc1F` (stereo not drawn), the No. of deaths in the assay with Mus musculus [1] worked out at 0. In the assay with Mus musculus [2], the T/C (as a rule, the ratio of treated to control) came to 101%. Moreover, in the assay filed under Mus musculus [3], the Median life span turned out to be 11.1 days. In the assay on Mus musculus [4], this molecule yielded a Weight change of 0.9 g.

For the molecule `O=c1[nH]c(=O)n([C@H]2C[C@H](O)[C@@H](CO)O2)cc1F` [FLOXURIDINE], the No. of deaths in the assay on Mus musculus [5], in the assay with Mus musculus [9], with Mus musculus [14], with Mus musculus [19], in the assay with Mus musculus [20] and with Mus musculus [21] was 0 each time. Besides, the Median life span came to 14.3 days in the assay on Mus musculus [6]; 13.1 days in the assay with Mus musculus [11]; 11.4 days in the assay with Mus musculus [15]; 12 days in the assay with Mus musculus [18]; 10.5 days in the assay on Mus musculus [24]; 8.3 days in the assay with Mus musculus [25]. Further, the Weight change is listed as 0.8 g in the assay with Mus musculus [7]; 1 g in the assay on Mus musculus [10]; -0.3 g with Mus musculus [23]; 0.6 g with Mus musculus [26]; -0.5 g in the assay on Mus musculus [27]; -0.7 g in the assay on Mus musculus [28]. In addition, the T/C in the assay with Mus musculus [8] was determined as 101%; in the assay on Mus musculus [12] it was 109%; in the assay on Mus musculus [13] it was 120%; in the assay on Mus musculus [16], 100%; in the assay with Mus musculus [17] it was 100%; with Mus musculus [22], 96%.
